# Assay results published in patent publication US20250352553A1, “TREATMENT OF HOSPITAL-ACQUIRED BACTERIAL PNEUMONIA AND VENTILATOR-ASSOCIATED BACTERIAL PNEUMONIA CAUSED BY SUSCEPTIBLE ISOLATES OF ACINETOBACTER BAUMANNII-CALCOACETICUS COMPLEX” (Entasis Therapeutics, Inc., priority 2024, published 2025).
# What was measured:
# [1] = system: Acinetobacter baumannii-calcoaceticus complex; type: in vivo, human; settings: Part A, CRABC m-MITT Population
# Experimental: The Phase 3 trial employed a non-inferiority design, as discussed and agreed with the FDA DAI. A Test of Cure (TOC) visit was completed 7±2 days after the last dose, and survival was assessed at Day 28.
# Patients were treated with either XACDURO® (1 g sulbactam and 1 g durlobactam, or renally adjusted dose) intravenously over 3 hours every 6 hours (n=91) or colistin 2.5 mg/kg (or renally adjusted dose) intravenously over 30 minutes every 12 hours after an initial loading dose of colistin 2.5 to 5 mg/kg (n=86). Both treatment arms also received 1 g imipenem/1 g cilastatin (or renally adjusted dose) intravenously every 6 hours as background therapy for potential HABP/VABP pathogens other than Acinetobacter baumannii-calcoaceticus complex. Patients received up to 14 days of therapy.
# Part A was a randomized, assessor-blinded, comparative portion of the Phase 3 trial. Patients were randomized (1:1) to 1.0 g sulbactam/1.0 g durlobactam or 2.5 mg/kg colistin. All patients in both treatment groups received 1.0 g imipenem/1.0 g cilastatin as background therapy to treat non-ABC co-infecting pathogens.
# Randomization was stratified by infection type (HABP/VABP/ventilated pneumonia [VP] vs bacteremia), severity of illness, and geography.
# Eligible patients were ≥18 years of age with a diagnosis of a serious infection caused by ABC as either a single pathogen or member of a polymicrobial infection confirmed by culture.
# Non-inferiority was concluded if the upper limit of the 2-sided 95% CI was <20%.
# Secondary efficacy endpoints for Parts A and B included: 28-day all-cause mortality in the m-MITT and ITT Populations, 14-day all-cause mortality in the CRABC m-MITT and m-MITT Populations, Clinical cure at TOC, End of Treatment (EOT), and Late Follow-Up (LFU) in the CRABC m-MITT Population, and Microbiological favorable assessment at TOC, EOT, and LFU in the CRABC m-MITT Population.
# [2] = system: Acinetobacter baumannii-calcoaceticus complex; settings: colistin-based therapy, cited from earlier work
# [3] = in vivo
# Experimental: The modified RIFLE criteria includes: Risk (R): increased creatinine level 1.5× or glomerular filtration rate (GFR) decreased >25%, • Injury (I): increased creatinine level 2× or GFR decreased >50%, Failure (F): increased creatinine level 3×, GFR decreased >75%, or creatinine level ≥4 mg/dL, Loss (L): persistent acute renal failure or complete loss of function for >4 weeks, and End-Stage Kidney Disease (ESKD; E): ESKD for >3 months.
substance,measurement,setting,value
colistin,28-day all-cause mortality,[1],32.3%
same,clinical cure rate at TOC,[1]; Test of Cure visit,40.3%
same,microbiological favorable assessment at TOC,[1]; eradication and presumed eradication,41.9%
same,"mortality rate, random effects analysis","[2]; literature review, DerSimonian and Laird, 95% CI 32%, 47%",40%
same,"mortality rate, fixed effects analysis","[2]; literature review, 95% CI 35%, 45%",40%
same,"mortality rate, random effects meta-analysis updated with 4 additional studies","[2]; 95% CI 36%, 47%",41%
same,incidence of nephrotoxicity (modified RIFLE criteria),[3],37.6%
